Assay [1] relates to Staphylococcus aureus. Nature of the assay: Antibacterial activity in mice infected with Staphylococcus aureus 3055. The assay is classed as functional.
Assay [2] has as its system Streptococcus pneumoniae. The assay can be described thus: Antibacterial activity in mice infected with Streptococcus pneumoniae Park1 by oral administration. The class given is functional.
Assay [3] deals with Streptococcus pyogenes. The assay can be described thus: Antibacterial activity in mice infected with Streptococcus pyogenes C203 after oral administration. The assay is classed as functional.
The subject of assay [4] is Streptococcus pyogenes. Nature of the assay: Antibacterial activity in mice infected with Streptococcus pyogenes C203 after subcutaneous administration. The assay is classed as functional.
The subject of assay [5] is Staphylococcus aureus. Nature of the assay: Antibacterial activity in mice infected with Staphylococcus aureus 3055 by oral administration. The class given is functional.
Assay [6] deals with Staphylococcus aureus. The assay can be described thus: Antibacterial activity in mice infected with Staphylococcus aureus 3055 by subcutaneous administration. The assay is classed as functional.
In assay [7] the test system is Streptococcus pneumoniae. Nature of the assay: Antibacterial activity in mice infected with Streptococcus pneumoniae Park1. The assay is classed as functional.
Assay [8] concerns Streptococcus pneumoniae. The assay can be described thus: Antibacterial activity in mice infected with Streptococcus pneumoniae Park1 by subcutaneous administration. The assay is classed as functional.
Assay [9] concerns Streptococcus pyogenes. The assay can be described thus: Antibacterial activity in mice infected with Streptococcus pyogenes C203. The class given is functional.
Assay [10] has as its system Haemophilus influenzae. Nature of the assay: Antibacterial activity against resistant Haemophilus influenzae 76. The class given is functional.
Assay [11] concerns Staphylococcus epidermidis. Nature of the assay: Antibacterial activity against Staph. epidermis EP11. The class given is functional.
Assay [12] concerns Streptococcus pneumoniae. Nature of the assay: Antibacterial activity against Streptococcus pneumoniae Park.
In assay [13] the test system is Staphylococcus aureus. Nature of the assay: Antibacterial activity against penicillin G sensitive Staphylococcus aureus V41. The assay is classed as functional.
The subject of assay [14] is Staphylococcus aureus. Nature of the assay: Antibacterial activity against methicillin resistant Staphylococcus aureus X400. The class given is functional.
Assay [15] concerns Streptococcus pyogenes. The assay can be described thus: Antibacterial activity against Streptococcus pyogenes C203. The class given is functional.
Assay [16] concerns Staphylococcus aureus. Nature of the assay: Antibacterial activity against penicillin G sensitive Staphylococcus aureus X1.1. The class given is functional.
Assay [17] deals with Staphylococcus aureus. Nature of the assay: Antibacterial activity against methicillin resistant Staphylococcus aureus S13E. The assay is classed as functional.
The subject of assay [18] is Haemophilus influenzae. Nature of the assay: Antibacterial activity against sensitive Haemophilus influenzae C.L. The class given is functional.
Assay [19] has as its system Streptococcus. Nature of the assay: Antibacterial activity against Streptococcus group D X66. The class given is functional.
Assay [20] relates to Streptococcus pyogenes. The assay can be described thus: Antibacterial activity in mice infected with Streptococcus pyogenes C203 by oral administration. The class given is functional.
Assay [21] has as its system Streptococcus pyogenes. Nature of the assay: Antibacterial activity in mice infected with Streptococcus pyogenes C203 by subcutaneous administration. The assay is classed as functional.

Converted amounts (≈) assume the structure as drawn.

In the case of `N[C@@H](C(=O)N[C@@H]1C(=O)N2C(C(=O)O)=C(Cl)CS[C@H]12)c1ccccc1` [CEFACLOR ANHYDROUS], the MIC in [1] was 1 mg/L (≈ 2.72 µM); in [7], 2 mg/L (≈ 5.44 µM); in [9] it was 0.25 mg/L (≈ 0.68 µM). Moreover, the ED50 in assay [2] amounted to 10.7 mg/kg; in assay [3], 0.8 mg/kg; in [4] it was 1.4 mg/kg; in assay [5], 0.13 mg/kg; in assay [6] it was 0.03 mg/kg; in assay [8] it was 11.5 mg/kg.
For the molecule `COc1ccc2cc([C@@H](N)C(=O)NC3C(=O)N4C(C(=O)O)=C(C)CSC34)ccc2c1` (stereo not given in full), the MIC in assay [10] is 4 mg/L (≈ 9.36 µM); in assay [11], 4 mg/L (≈ 9.36 µM); in assay [12], 0.125 mg/L (≈ 0.292 µM); in assay [13], 16 mg/L (≈ 37.4 µM); in [14], 64 mg/L (≈ 150 µM); in assay [15], 0.125 mg/L (≈ 0.292 µM). For the same molecule, the MIC in assay [16] was 0.25 mg/L (≈ 0.585 µM); in [17], 16 mg/L (≈ 37.4 µM); in assay [18], 16 mg/L (≈ 37.4 µM).
For the molecule `CC1=C(C(=O)O)N2C(=O)C(NC(=O)[C@H](N)c3ccc4ccccc4c3)C2SC1` (stereo not given in full), the MIC came out at 2 mg/L (≈ 5.03 µM) in [10]; 0.5 mg/L (≈ 1.26 µM) in assay [1]; 64 mg/L (≈ 161 µM) in assay [19]; 4 mg/L (≈ 10.1 µM) in assay [11]; 0.5 mg/L (≈ 1.26 µM) in assay [12]; 8 mg/L (≈ 20.1 µM) in [13]. In addition, the MIC turned out to be 64 mg/L (≈ 161 µM) in assay [14]; 0.125 mg/L (≈ 0.315 µM) in [15]; 1 mg/L (≈ 2.52 µM) in [7]; 0.5 mg/L (≈ 1.26 µM) in [16]; 8 mg/L (≈ 20.1 µM) in assay [17]; 8 mg/L (≈ 20.1 µM) in [18]. In addition, in assay [9], the MIC amounted to 0.125 mg/L (≈ 0.315 µM). Further, the ED50 in assay [2] is over 25 mg/kg; in assay [20], 3.4 mg/kg; in assay [5], 0.41 mg/kg; in [6] it was 0.07 mg/kg; in assay [8] it was 17.6 mg/kg; in assay [21] it was 2 mg/kg.
Consider `CC1=C(C(=O)O)N2C(=O)C(NC(=O)[C@H](N)c3cccc4ccc(Cl)cc34)C2SC1` (stereo not given in full), for which the MIC in assay [10] turned out to be 4 mg/L (≈ 9.26 µM); in assay [11], 2 mg/L (≈ 4.63 µM); in [13], 4 mg/L (≈ 9.26 µM); in assay [14], 16 mg/L (≈ 37 µM); in [15], 0.25 mg/L (≈ 0.579 µM); in assay [16], 1 mg/L (≈ 2.32 µM). The values for the MIC in assay [17] and in assay [18] were 4 mg/L (≈ 9.26 µM) and 16 mg/L (≈ 37 µM), respectively.
Consider `CC1=C(C(=O)O)N2C(=O)C(NC(=O)[C@H](N)c3cccc4ccccc34)C2SC1` (stereo not given in full), for which the MIC in [10] stood at 2 mg/L (≈ 5.03 µM); in assay [19], 128 mg/L (≈ 322 µM); in [11], 8 mg/L (≈ 20.1 µM); in assay [12], 2 mg/L (≈ 5.03 µM); in assay [13], 32 mg/L (≈ 80.5 µM); in [14], 64 mg/L (≈ 161 µM). For the same molecule, the MIC in assay [15] amounted to 2 mg/L (≈ 5.03 µM); in [16], 1 mg/L (≈ 2.52 µM); in assay [17] it was 32 mg/L (≈ 80.5 µM); in [18], 8 mg/L (≈ 20.1 µM).
As to `CC1=C(C(=O)O)N2C(=O)C(NC(=O)[C@H](N)c3csc4cc(Cl)c(Cl)cc34)C2SC1` (stereo not given in full), the MIC in assay [10] is 1 mg/L (≈ 2.12 µM); in assay [11], 4 mg/L (≈ 8.47 µM); in assay [12], 0.5 mg/L (≈ 1.06 µM); in [13], 8 mg/L (≈ 16.9 µM); in assay [14], 64 mg/L (≈ 135 µM); in assay [15], 0.25 mg/L (≈ 0.529 µM). Moreover, the MIC in [16] amounted to 1 mg/L (≈ 2.12 µM); in assay [17], 4 mg/L (≈ 8.47 µM); in [18], 4 mg/L (≈ 8.47 µM).
Consider `CC1=C(C(=O)O)N2C(=O)C(NC(=O)[C@H](N)c3ccc4cc(Cl)ccc4c3)C2SC1` (stereo not given in full), for which the MIC in assay [10] worked out at 2 mg/L (≈ 4.63 µM); in assay [19], 64 mg/L (≈ 148 µM); in [11], 4 mg/L (≈ 9.26 µM); in assay [12] it was 0.25 mg/L (≈ 0.579 µM); in assay [13] it was 8 mg/L (≈ 18.5 µM); in assay [14], 64 mg/L (≈ 148 µM). Moreover, the MIC in assay [15] turned out to be 0.06 mg/L (≈ 0.139 µM); in assay [16], 0.25 mg/L (≈ 0.579 µM); in [17], 8 mg/L (≈ 18.5 µM); in [18], 32 mg/L (≈ 74.1 µM).
Regarding `CC1=C(C(=O)O)N2C(=O)C(NC(=O)[C@H](N)c3ccc4cccc(Cl)c4c3)C2SC1` (stereo not given in full), the MIC in assay [10] is 0.5 mg/L (≈ 1.16 µM); in assay [19] it was 16 mg/L (≈ 37 µM); in assay [11], 1 mg/L (≈ 2.32 µM); in assay [12], 0.25 mg/L (≈ 0.579 µM); in [13], 1 mg/L (≈ 2.32 µM); in [14], 4 mg/L (≈ 9.26 µM). Also, the MIC in assay [15] worked out at 0.25 mg/L (≈ 0.579 µM); in [16], 0.5 mg/L (≈ 1.16 µM); in [17], 1 mg/L (≈ 2.32 µM); in [18], 8 mg/L (≈ 18.5 µM).
As for `CC1=C(C(=O)O)N2C(=O)[C@@H](NC(=O)[C@H](N)c3ccccc3)[C@H]2SC1` [CEPHALEXIN ANHYDROUS], the MIC in assay [1] came out at 1 mg/L (≈ 2.88 µM); in assay [12], 1 mg/L (≈ 2.88 µM); in assay [15], 0.5 mg/L (≈ 1.44 µM); in assay [16], 4 mg/L (≈ 11.5 µM); in [9] it was 0.5 mg/L (≈ 1.44 µM). Further, the ED50 in [2] came to 51 mg/kg; in assay [3], 3.3 mg/kg; in [4], 2.9 mg/kg; in [5] it was 0.34 mg/kg; in assay [6], 0.2 mg/kg; in assay [8], 23 mg/kg.

(Values after ChEMBL document CHEMBL1122874, “Orally absorbable cephalosporin antibiotics. 1. Structure-activity relationships of benzothienyl- and naphthylglycine derivatives of 7-aminodeacetoxycephalosporanic acid” (1985).)
